Tests used:
[1] = cited from earlier work
[2] = Negative control of the enzymatic assay: probe in buffered aqueous medium without enzyme (background fluorescence / hydrolytic robustness); format: physicochemical; settings: probe 25 μM, no b-gal, pH 7.4, 25° C., excitation 355 / detection 510 nm
Protocol: (§1) Probe I.1 was evaluated by incubation with the target enzyme beta-galactosidase (EC 3.2.1.23; <<b-gal>>; commercial) in in vitro medium and in multi-well micro-plates designed for fluorescence readers.
(§2) The main assays were conducted at 25° C. in solutions buffered at pH 7.4, physiological pH). Assays at 37° C. would have required protection of the wells against early evaporation e.g. by covering with a film which would have caused a strong reduction in the sensitivity of fluorescence measurement. A temperature of 25° C. was therefore preferred.
(§3) The following enzymatic assays of probe I.1 were performed in a 96-well microplate in a microplate spectrofluorimeter of Mithras LB 940 type by BERTHOLD TECHNOLOGIES. The excitation wavelength was set at 355 and the detection wavelength at 510 nm, conforming to the spectral properties of dichloro-HPQ.

[3] = test system: cells of C17.2 type which express the target enzyme b-gal constitutively; test: Incubation of the probe with C17.2 cells, microplate fluorescence; format: cell-based; settings: probe 25 μM, culture plate without serum
Protocol: The experiment was conducted in a cell culture plate without serum, and the fluorescence signal was measured by the microplate spectrofluorimeter of Mithras LB 940 type by BERTHOLD TECHNOLOGIES.

[4] = test system: beta-galactosidase (EC 3.2.1.23; b-gal); test: Enzymatic assay: incubation of the probe with beta-galactosidase, microplate fluorescence; format: biochemical
Protocol: as §1, §2
In the invention when implementing the enzymatic assays, once the minimum concentration allowing triggering of crystal nucleation is reached, there is depositing of a solid fluorophore in a well of a multi-well plate.
as §3

[5] = test system: cells expressing b-gal constitutively; test: Fluorescence microscopy of cells incubated with the probe; format: cell-based; settings: probe 25 μM, 48 hours, serum-free medium
Protocol: FIG. 4 is a microscope image of the fluorescence of cells expressing b-gal constitutively and which were incubated by probe I.1 at 25 μM for 48 hours in a serum-free medium.

trend in the fluorescence signal in the absence of enzyme (negative control) [2] | capacity to cross the cell membrane [3] | trend in fluorescence signal with increasing probe concentration ([4]; b-gal fixed at 20 μM, three concentrations of probe) | dependence of the fluorescence signal on the concentration of target enzyme ([4]; probe fixed at 25 μM, three concentrations of b-gal) | Compound | solubility in aqueous/physiological media [1] | conversion by intracellular b-gal (fluorescence signal) [3] | fluorescent precipitate in cells (microscope image) [5]
– | – | – | – | O=c1[nH]c(-c2cc(Cl)ccc2O)nc2ccc(Cl)cc12 [dichloro-HPQ, 6-chloro-2-(5-chloro-2-hydroxyphenyl)-4(3H)-Quinazolinone] | fully insoluble | – | –
total absence of a fluorescence signal | cross the cell membrane | Strong growth of the signal | independency of the signal | O=C(Oc1ccc(Cl)cc1-c1nc2ccc(Cl)cc2c(=O)[nH]1)N1CCCCC1CO[C@@H]1O[C@H](CO)[C@H](O)[C@H](O)[C@H]1O (stereo partly shown) [probe I.1] | – | converted by the enzyme | highly fluorescent dichloro-HPQ is precipitated

— patent US9593362B2, “Fluorogenic glycosidase substrate and associated detection method” (ECOLE NORMALE SUPERIEURE DE LYON, priority 2012, dated 2017)
